Source: paper PMC5030134 (Nature chemical biology, 2016)

Molecular target: T1, α-xylosidase (Xylsa) (Saccharolobus solfataricus, UniProt Q9P999)
T1 sequence (Q9P999 1-731): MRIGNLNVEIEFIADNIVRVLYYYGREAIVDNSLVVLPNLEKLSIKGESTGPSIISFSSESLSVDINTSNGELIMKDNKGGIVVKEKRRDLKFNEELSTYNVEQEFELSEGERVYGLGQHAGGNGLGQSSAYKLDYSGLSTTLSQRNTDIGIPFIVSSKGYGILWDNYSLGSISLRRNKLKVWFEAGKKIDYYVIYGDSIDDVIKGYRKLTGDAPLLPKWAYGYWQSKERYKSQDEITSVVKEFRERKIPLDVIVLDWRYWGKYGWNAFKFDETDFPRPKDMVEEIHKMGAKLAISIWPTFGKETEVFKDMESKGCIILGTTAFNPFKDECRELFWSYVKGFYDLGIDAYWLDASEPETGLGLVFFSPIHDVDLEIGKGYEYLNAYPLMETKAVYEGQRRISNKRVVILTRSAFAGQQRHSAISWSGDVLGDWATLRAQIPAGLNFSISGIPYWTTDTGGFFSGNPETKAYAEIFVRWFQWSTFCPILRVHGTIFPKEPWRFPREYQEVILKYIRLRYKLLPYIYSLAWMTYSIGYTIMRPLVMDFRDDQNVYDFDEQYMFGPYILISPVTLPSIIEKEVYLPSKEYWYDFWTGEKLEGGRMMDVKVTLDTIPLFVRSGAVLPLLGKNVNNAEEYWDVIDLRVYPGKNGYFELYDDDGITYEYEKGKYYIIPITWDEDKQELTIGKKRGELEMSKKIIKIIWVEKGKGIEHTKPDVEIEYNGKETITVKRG
Experiment: HPLC and ESI-MS of digestion product
Assay type: biochemical
Conditions: 150 mM sodium acetate pH 5.5, 65 °C, 3 h; second step, gives G3

Cc1cc(=O)oc2cc(O[C@@H]3O[C@H](C(=O)O)[C@@H](O)[C@H](O[C@H]4OC[C@@H](O)[C@H](O[C@@H]5O[C@H](C(=O)O)[C@@H](O)[C@H](O[C@H]6OC[C@@H](O)[C@H](O)[C@H]6O)[C@H]5O)[C@H]4O)[C@H]3O)ccc12 [G4]
HPLC and ESI-MS of digestion product: The product of the first step of G5 digestion was incubated with Xylsa
